The source of these data is patent publication US20240166641A1, “HETEROCYCLES AND USES THEREOF” (Kumquat Biosciences Inc., priority 2021, published 2024).

One series deals with T1, PTP1B (Homo sapiens, UniProt P18031).
T1 sequence (P18031 1-435): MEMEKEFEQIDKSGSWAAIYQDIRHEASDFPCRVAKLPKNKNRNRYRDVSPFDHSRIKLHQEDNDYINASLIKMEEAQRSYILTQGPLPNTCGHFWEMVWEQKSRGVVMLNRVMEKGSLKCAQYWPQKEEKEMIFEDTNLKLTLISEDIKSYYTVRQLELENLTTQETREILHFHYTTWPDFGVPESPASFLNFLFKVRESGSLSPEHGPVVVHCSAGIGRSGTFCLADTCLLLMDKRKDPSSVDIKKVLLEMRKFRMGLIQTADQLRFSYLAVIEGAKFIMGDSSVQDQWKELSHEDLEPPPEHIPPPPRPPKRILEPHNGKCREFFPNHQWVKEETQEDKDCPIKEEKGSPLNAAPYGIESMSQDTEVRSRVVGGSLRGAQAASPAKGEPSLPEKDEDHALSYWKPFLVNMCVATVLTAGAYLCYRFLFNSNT
The experiment in a line: Phosphatase activity assay (Bio-Biochem-DiFMUP), PTP1B. It counts as biochemical. The note with it: DiFMUP substrate, room temperature. In a few lines: (§1)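 Buffer was 50 mM Bis-Tris pH 6.3, 2 mM EDTA, 5 mM DMH, with 10 μM FDP or DiFMUP substrate, enzyme added last, at room temperature. Fluorescent product was read continuously for 15–30 min (DiFMU ex 360/em 450 nm; FMP ex 440/em 530 nm). Initial rates against 10-point inhibitor series were fitted with a 4-parameter equation to give IC50.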

The next series has as its target T2, PTPN2 (Homo sapiens, UniProt P17706).
T2 sequence (P17706 1-415): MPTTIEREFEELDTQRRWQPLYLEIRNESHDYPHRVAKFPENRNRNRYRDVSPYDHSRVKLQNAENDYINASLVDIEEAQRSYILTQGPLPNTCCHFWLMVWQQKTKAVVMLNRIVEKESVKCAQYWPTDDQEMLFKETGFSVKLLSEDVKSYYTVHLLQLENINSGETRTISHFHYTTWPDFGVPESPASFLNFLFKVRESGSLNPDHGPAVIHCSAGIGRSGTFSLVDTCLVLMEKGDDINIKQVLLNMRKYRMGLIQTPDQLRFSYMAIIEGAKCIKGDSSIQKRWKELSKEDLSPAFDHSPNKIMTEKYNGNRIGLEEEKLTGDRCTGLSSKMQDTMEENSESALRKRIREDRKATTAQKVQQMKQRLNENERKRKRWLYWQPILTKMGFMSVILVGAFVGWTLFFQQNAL
Nature of the series: Phosphatase activity assay (Bio-Biochem-DiFMUP), PTPN2. It counts as biochemical. The note with it: DiFMUP substrate, room temperature. In a few lines:
as §1

The next series deals with mouse C57BL/6 T cells. The experiment in a line: pSTAT1 signaling in IFNα-stimulated T cells, flow cytometry. The following applies: T-cell, 10 uM compound, T cells stimulated for 5 hours by IFNα, read-out: % pSTAT1 in cells treated with subject compounds relative to negative control (DMSO). The series is classed as cell-based. How it is done:
IFNα signaling in mouse C57BL/6 T cells promotes activation of multiple signaling pathways associated with antitumor responses. A key target of this signaling is phosphorylation of the transcription factor STAT1. […] T cells are stimulated for 5 hours by IFNα in the presence or absence of exemplified compounds disclosed herein (e.g., PTPN2 inhibitors) and stained intracellularly with antibodies for phosphorylated STAT1 and then analyzed by flow cytometry. Enhancement of phosphorylation of STAT1 is read out as a percentage over the DMSO control.

Series [1] has as its system C57B3L/6 mouse primary T cells. The experiment in a line: T-cell activation: CD25 expression on primary T cells stimulated with anti-CD3/CD28. It counts as cell-based. The note with it: 10 uM compound, primary T cells stimulated with antibodies to CD3 and CD28. As to the method: The increase of T cell activation and most importantly T cell function is a strategy for novel immune oncology approaches to promote tumor immunity. In vitro assays using wildtype C57B3L/6 mouse primary T cells are commonly used to assess the impact of compound on T cell activation and function. To assess the ability of compounds disclosed here (e.g., PTPN2 inhibitors) to stimulate T cell activation, primary T cells stimulated with antibodies to CD3 and CD28 are treated with or without exemplary compounds (at 10 uM) disclosed herein are stained with antibodies directed to T-cell activation markers, such as CD25. Additional markers including without limitation CD69, SLAMF6, TIM3, and PD1 can also be employed as a proxy for T cell activation.

Series [2] concerns B16F10 mouse melanoma cells. Nature of the series: MHC expression associated with IFNγ signaling, flow cytometry. The series is classed as cell-based. The following applies: B16-F10, 3 uM compound, 48 hours, normalized to DMSO/with IFNγ control, read-out: % MHC in cells treated with Compound at 3 uM relative to negative control (DMSO). How it is done: B16F10 mouse melanoma cells (ATCC Cat #CRL-6475, Manassas, VA) are seeded at approximately a density of 500 cells per well in a 384-well clear bottom plate (Corning Cat #3765, Corning, 5 NY) in 25 μL total volume of DMEM+10% FBS (Sigma Cat #D6429 and Sigma Cat #F4135, St. Louis, MO). Cells are allowed to adhere overnight at 37° C.+5% CO2. On the following day, 12.5 μL of mouse IFNγ (RD systems Cat #485-MI/CF, Minneapolis, MN) is added to half of the plate (columns 13-24) at a concentration of 2 ng/mL for a final assay concentration of 0.5 ng/mL of IFNγ. Media only (12.5 μL of DMEM+10% FBS) is added to the remainder of the 10 plate (columns 1-12). Next, compounds resuspended in DMSO (Sigma Cat #D2650) at 100 mM are diluted in semi-log dilutions in DMSO ranging from 100 mM to 0.001 mM and DMSO only controls are included. The compound/DMSO dilutions are further diluted 1:250 in DMEM+10% FBS, and 12.5 μL of these dilutions are added in triplicates to cells of both treatment arms (with and without IFNγ). Compounds are only dosed in the inner 240 wells, avoiding the outer 2-well perimeter of the plate to minimize edge effects. Finally, the plate is loaded into an IncuCyte® S3 Live Cell Analysis System (Essen Bioscience-Sartorius, Ann Arbor, MI) maintained in a 37° C.+5% CO2 incubator, allowed to equilibrate for 2 hours, and treated for 48 hours. MHC levels are measured by flow cytometry using a FITC anti-mouse H-2kb antibody (clone AF6-88.5), and levels are normalized based on DMSO/with IFNγ control. Table 7 below summarizes the percentage in MHC expression in cells treated with or without compounds disclosed herein at a specified concentration.
In general terms: Flow cytometry measures light scatter and fluorescence of single cells or particles in a stream.

Series [3] can be described thus: Rat PK PO (oral pharmacokinetics, Compound A vs. Reference CMPD). It counts as in vivo. The note with it: identical oral dosing. As to the method:
(§2) Furthermore, an AUCfinal for Compound A was measured to be 356% that of the Reference CMPD measured in the same manner and at the same time in the same mouse model. […] Furthermore, an AUCfinal for Compound A was measured to be 224% that of the Reference CMPD measured in the same manner and at the same time in the same rat model.

The subject of series [4] is B16F10 cells. The experiment in a line: Tumor infiltrating lymphocyte exhaustion assay. The series is classed as in vivo, mouse. The note with it: Day 7 post dosing, B16F10 tumors in C57BL/6 mice. The source says:
The same mouse model is utilized to assess the amount of tumor infiltrating lymphocytes when treated with or without an exemplary compound A of the present disclosure. C57BL/6 mice were implanted with 5*10^5 B16F10 cells formulated in Matrigel via the subcutaneous route. After tumors reached a size of 50-150 mm^3, mice were randomized. 7 days post randomization, tumor cells were processed on a GentleMACS octo dissociator and stained for exhaustion markers using a panel of antibodies: Live/Dead, CD45.1, CD8, TIM-3, PD-1, SLAMF6, CD11b, CD38. In parallel, splenocytes were stained with the same cocktail of antibodies and analyzed by flow cytometry. […] PTPN2 inhibitors are tested in the described TIL exhaustion assay to measure modulation of exhaustion in the tumor microenvironment.

The nature of series [5]: mouse PK PO (oral pharmacokinetics, Compound A vs. Reference CMPD). The series is classed as in vivo. The following applies: identical oral dosing. As to the method: as §2
Series [6] deals with B16F10 cells. The experiment in a line: In vivo efficacy in B16F10 mouse tumor model. The following applies: B16F10 in female C57BL/6 mice, oral BID, 100 or 300 mg/kg/dose. As to the method:
Cells are grown to passage 3 in vitro. A total of 1 to 5×10^5 viable B16F10 cells are inoculated subcutaneously into the right flank of female C57BL/6 mice (7-12 weeks old) on Day 0. The injection volume is 0.1 mL and is composed of a 1: 1 mixture of S-MEM and Matrigel® (Corning, NY, USA). The mean tumor volume (TV) at randomization is approximately 100-200 mm^3. Following randomization, treatments are initiated on the same day. Dosing of mice is conducted orally, twice a day (BID). Mice are dosed (100 mg/kg/dose or 300 mg/kg/dose) with a compound described herein or vehicle controls. Tumor volume is calculated three times weekly. Measurements of the length (L) and width (W) of the tumor are taken via electronic caliper and the volume is calculated according to the following equation: V=L×W^2/2. Tumor growth inhibition (TGI) is calculated as TGI=1−(Mean TV Timepoint(Treatment)/MeanTV Timepoint (Vehicle)) for each timepoint that tumor volumes are measured and depicted in FIG. 3.

Setting [7] is: Rat PK PO, relative to Reference CMPD of WO2019/246513.
Setting [8] is: mouse PK PO, relative to Reference CMPD of WO2019/246513.

Molecules are shown by their SMILES. Bounds are passed on as bounds.

`CC(C)Nc1cc2c(F)c(N3CC(=O)NS3(=O)=O)c(O)cc2n(C)c1=O` [Compound 165]: the IC50 at PTP1B and at PTPN2 was no more than 1000 nM throughout. For the same compound, the activity at 10 µM in the series with mouse C57BL/6 T cells was 139%.

With `O=C1CN(c2c(O)cc3ccc(OC(F)F)nc3c2F)S(=O)(=O)N1` [Compound 197], the IC50 at PTP1B and on PTPN2 was no more than 1000 nM each time. Further, in series [1], the “% CD25 expression in cells treated with subject compounds relative to negative control (DMSO)” value was 436%. In addition, in [2], the activation at 3 µM is greater than 10%. Besides, the activity at 10 µM in the series with mouse C57BL/6 T cells was 196%.

Take `CC(C)CCOc1cc2c(F)c(N3CC(=O)NS3(=O)=O)c(O)cc2n(C)c1=O` [Compound 136, 5-(5-fluoro-7-hydroxy-3-(isopentyloxy)-1-methyl-2-oxo-1,2-dihydroquinolin-6-yl)-1,2,5-thiadiazolidin-3-one 1,1-dioxide]: the IC50 at PTP1B and on PTPN2 was no more than 1000 nM each time. Besides, the activity at 10 µM with mouse C57BL/6 T cells stood at 131%.

With `COc1ccc2cc(O)c(N3CC(=O)NS3(=O)=O)c(F)c2n1` [Compound A], in [3] (setting [7]), the “% F, Compound A vs. Reference CMPD ((Compound A/Reference CMPD) × 100%)” value is 208%; the “AUClast, Compound A vs. Reference CMPD ((Compound A/Reference CMPD) × 100%)” value was found to be 224%; the “Cmax, Compound A vs. Reference CMPD ((Compound A/Reference CMPD) × 100%)” value came to 155%. Further, the “AUCfinal of Compound A as % of that of the Reference CMPD” value in [3] (rat pharmacokinetic model, relative to Reference CMPD) stood at 224%. In the series with B16F10 cells [4], the “CD38+/CD11b+ “M1” Macrophages” value is given as “increase” and the “TIM3+/PD1+ T cells” value is on record as “increase”. Further, in series [5] (setting [8]), the “% F, Compound A vs. Reference CMPD ((Compound A/Reference CMPD) × 100%)” value is given as 195%; the “AUClast, Compound A vs. Reference CMPD ((Compound A/Reference CMPD) × 100%)” value amounted to 356%; the “Cmax, Compound A vs. Reference CMPD ((Compound A/Reference CMPD) × 100%)” value was 495%. For the same compound, the “AUCfinal of Compound A as % of that of the Reference CMPD” value in [5] (mouse pharmacokinetic model, relative to Reference CMPD) was found to be 356%. The “Tumor volume / tumor growth inhibition (FIG. 3)” value in the series with B16F10 cells [6] was “apparent tumor stasis and shrinkage”.

`CC(C)Nc1cc2c(F)c(N3CC(=O)NS3(=O)=O)c(O)cc2n(C2CC2)c1=O` [Compound 133]: the IC50 on PTP1B and at PTPN2 was no more than 1000 nM in each case. Also, the activity at 10 µM in the series on mouse C57BL/6 T cells stood at 170%.

Take `CC(C)Oc1ccc2cc(O)c(N3CC(=O)NS3(=O)=O)c(F)c2n1` [Compound 192]: the IC50 on PTP1B and at PTPN2 was no more than 1000 nM throughout. Further, in series [1], the “% CD25 expression in cells treated with subject compounds relative to negative control (DMSO)” value is on record as 375%. Also, the activity at 10 µM in the series on mouse C57BL/6 T cells was determined as 183%.

`O=C1CN(c2c(O)cc3c(cc(NC4CCCC4)c(=O)n3C3CC3)c2F)S(=O)(=O)N1` [Compound 185]: the IC50 at PTP1B and at PTPN2 was no more than 1000 nM each time. In addition, the activity at 10 µM in the series on mouse C57BL/6 T cells is 181%.

For the compound `O=C1CN(c2c(O)cc3ccc(OC4CCC4)nc3c2F)S(=O)(=O)N1` [Compound 205], the IC50 on PTP1B and at PTPN2 was no more than 1000 nM throughout. In series [1], the “% CD25 expression in cells treated with subject compounds relative to negative control (DMSO)” value is on record as 423%.

As usually defined, the IC50 is the concentration that gives 50% inhibition.
